The target in series [1] is T1, human transglutaminase 2 (TG2) (Homo sapiens, UniProt P21980).
T1 construct: purchased Zedira, Darmstadt, Germany T034
T1 sequence (P21980 1-687): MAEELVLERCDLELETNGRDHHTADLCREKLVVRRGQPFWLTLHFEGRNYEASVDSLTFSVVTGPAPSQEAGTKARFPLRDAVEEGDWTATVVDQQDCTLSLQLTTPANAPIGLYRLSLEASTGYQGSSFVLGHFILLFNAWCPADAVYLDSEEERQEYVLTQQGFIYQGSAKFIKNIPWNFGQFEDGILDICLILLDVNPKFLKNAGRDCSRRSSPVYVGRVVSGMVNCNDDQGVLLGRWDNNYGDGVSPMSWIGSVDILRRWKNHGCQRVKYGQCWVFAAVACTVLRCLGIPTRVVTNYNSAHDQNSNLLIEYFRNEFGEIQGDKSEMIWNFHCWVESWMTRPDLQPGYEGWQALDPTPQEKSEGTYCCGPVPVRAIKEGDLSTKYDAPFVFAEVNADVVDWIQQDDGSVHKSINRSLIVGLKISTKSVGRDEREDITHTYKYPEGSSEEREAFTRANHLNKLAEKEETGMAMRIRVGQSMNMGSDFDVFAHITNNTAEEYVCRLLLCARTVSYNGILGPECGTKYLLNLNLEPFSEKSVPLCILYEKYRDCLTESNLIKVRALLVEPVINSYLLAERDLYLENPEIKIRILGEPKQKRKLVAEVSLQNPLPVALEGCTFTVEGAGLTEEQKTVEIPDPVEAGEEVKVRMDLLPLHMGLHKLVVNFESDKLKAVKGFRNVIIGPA
Put plainly: TG2-mediated cross-linking (transamidation) of pepsin-/trypsin-digested gliadin (PTG) on immobilized TG2. In kind it is biochemical. The conditions noted are these: for TG2-mediated cross-linking of PTG: 10 nM TG2 coated, 10 µg/mL PTG, 1 h 37 °C, normalized to TG2 without inhibitor, mean ± SD, n = 4. The protocol:
A tissue-culture-treated 96-well plate (83.3924, Sarstedt, Nümbrecht, Germany) was coated for 1 h at 37°C with 10 nM TG2 (T034, Zedira, Darmstadt, Germany) in 50 mM Tris, 1 mM EDTA, 5 mM CaCl2 (pH 7.5) buffer containing 10 mM DTT. After three washes with PBS, the plate was blocked with 2% bovine serum albumin (BSA, Carl Roth GmbH, Karlsruhe, Germany) in PBS for 30 min at room temperature. Then, incubation with 10 µg/mL of pepsin-/trypsin-digested gliadin (PTG, T004, Zedira) ± inhibitors was performed for 1 h at 37 °C. After three washes with PBS, the primary antibody directed against gliadin (1:1000, clone XGY4, Zedira) was applied in BSA 2% at 4 °C overnight on an orbital shaker. The next day, the secondary antibody directed against mouse IgG (1:1000; sc-516102, Santa Cruz Biotechnology, Dallas, TX, USA) was incubated in BSA 2% for 1 h at room temperature on an orbital shaker. After three washes with phosphate buffered saline (PBS), the HRP-substrate TMB (tetramethylbenzidine, Sigma-Aldrich, Darmstadt, Germany) was added (100 µL per well). Photometric quantitation at 655 nm was performed after 15 min using a Clariostar Plus (BMG Labtech, Ortenberg, Germany) microplate reader.

The subject of series [2] is transepithelial passage of P56-88 in Caco-2 cells. Put plainly: Transepithelial transport of promofluor-conjugated gliadin peptide P56-88 across Caco-2 monolayers (fluorometry). The series is classed as cell-based, human. As to conditions: 3 h; for transepithelial passage of P56-88 (relative basal fluorescence): 7 µg/mL peptide apical in HBSS, normalized to no inhibitor, mean ± SD, n = 3. The method, then: Transepithelial transport of immunogenic and toxic gliadin peptides were examined in Caco-2 cells 7–14 days after confluency. Caco-2 cells were seeded on semi-permeable transwell supports (ThinCert, culture surface: 33.6 mm², pore size: 0.4 µm) in 24-well plates (Greiner Bio One, Pleidelsheim, Germany). Prior to the transport experiments, the integrity of the cell monolayer was tested by measuring the transepithelial electric resistance (TEER) using a volt-ohm meter (Millipore, Schwalbach, Germany). Monolayers with insufficient TEER (<350 Ω/cm^2) were omitted. The synthesis and purification of promofluor-conjugated gliadin peptides were described elsewhere. Cells were either incubated with the immunogenic peptide P56-88 ([…]) or the toxic gliadin peptide P31-43 (LGQQQPFPPQQPY), 7 µg/mL each, in Hank’s balanced salt solution (HBSS) for 3 h. To investigate the role of TG2 on the transport of gliadin peptides, incubation was performed in the presence of ERW1041 and PX-12. After 3 h, basal and apical supernatants were collected, and the relative fluorescence of the basal compartment was quantified using a FLUOstar Optima (BMG Labtech) microplate reader. Background subtraction was performed against conditions, where no labeled peptides were used. Normalization was performed against conditions, where no inhibitors were used.
A general note: Caco-2 monolayers are a common model of the intestinal barrier.

Series [3] concerns the target T2, TG2 in Caco-2 cell lysates (Homo sapiens, UniProt P21980).
T2 construct: endogenous in cells; host or cells: Caco-2 (differentiated; IFN-γ-stimulated in the monolayer assay)
T2 sequence (P21980 1-687): T1 sequence (P21980 1-687)
Put plainly: Transglutaminase activity in Caco-2 whole cell lysates (5BP cross-linking). The series is classed as biochemical. As to conditions: 10 µM inhibitor (b1); lysate of differentiated Caco-2 cells incubated with 5BP and inhibitor overnight; mean ± SD, n = 3. The method, then: The method to investigate TG2 activity from whole cell lysates was adapted from Lin et al.. In brief, 20 µg protein per cavity on the 96-well plate were incubated in 50 mM Tris, 1 mM EDTA, 5 mM calcium chloride (pH 7.5) buffer in the presence of 500 µM 5BP (5-biotinamidopentylamine, Thermo Fisher Scientific, Langenselbold, Germany) for the indicated time. After incubation, the plate was washed three times with PBS + 0.05% Tween. After blocking with 5% BSA in PBS for 1 h, the plate was incubated with 2 µg/mL streptavidin-Alexa Fluor 488 (Thermo Fisher Scientific) in 5% BSA. After 3 washing steps with PBS + 0.05% Tween, fluorometric evaluation was performed using a Clariostar Plus (BMG Labtech) microplate reader (no well scan mode, excitation 488 nm, emission 535 nm, fixed gain: 2000).

Take `O=C(NC[C@@H]1CC(Br)=NO1)[C@@H]1CCCN1C(=O)OCc1cnc2ccccc2c1` [ERW1041]: the “TG2-mediated cross-linking of PTG” value in series [1] (10 µM inhibitor) amounted to 48 ± 8%; in series [1] (100 µM inhibitor), 11 ± 2%. Moreover, the “transepithelial passage of P56-88 (relative basal fluorescence)” value was 33 ± 22% in series [2] (1 µM inhibitor) and 24 ± 16% in series [2] (100 µM inhibitor). Further, in series [3], the “TG2 activity in Caco-2 cell lysates” value came out at 45 ± 19%.

With `CCC(C)SSc1ncc[nH]1` (stereo not shown) [PX-12, 2-[(1-methylpropyl)dithio]-1H-imidazole], the “TG2-mediated cross-linking of PTG” value in series [1] (10 µM inhibitor) was found to be 15 ± 3%; in series [1] (100 µM inhibitor), 5 ± 1%. Moreover, the “reduction of enzymatic modification of gliadin” value in series [1] (at 10 µM and 100 µM) was “more than 80%”. The “effect on the epithelial translocation of P56-88” value in series [2] is recorded as “no significant effect”. In series [3], the “TG2 activity in Caco-2 cell lysates” value came to 12 ± 7%.

Values taken from paper PMC10002517, “Inhibition of Transglutaminase 2 as a Therapeutic Strategy in Celiac Disease—In Vitro Studies in Intestinal Cells and Duodenal Biopsies” (International Journal of Molecular Sciences, 2023).
